# Source: PMC9588787, “Exploring the In situ pairing of human galectins toward synthetic O-mannosylated core M1 glycopeptides of α-dystroglycan” (Scientific Reports, 2022)
# “Also recorded” adds a separate entry of the source. Where no end group is shown, it is not given here.
# How the values were obtained:
# Gal-1 [1] = experiment: Glycopeptide microarray lectin binding assay, Gal-1; parameters: species or system human; details: compounds immobilised at 20 and/or 200 μM, quadruplets; labelled Gal-1 0.10-32.0 µg/mL, PBS pH 7.4, no reducing agent, ambient air (partially oxidizing)
# Experimental: Following our reported optimized protocol, the binding profile of lectins were investigated using evanescent-field fluorescence-assisted microarray technology to directly monitor the interaction without the wash and dry-up process and rapid exchange of protein solution to evaluate concentration dependence, 0.10–32.0 µg/mL protein. The AO/PC-copolymer microarray slides were deprotected using 2N HCl treatment overnight at rt, rinsed with MilliQ H2O, and dried by centrifugation. Then, test compounds were robotically printed using Arduino-based CNC machine handcrafted robot in quadruplets at two concentrations (20 and 200 µM) in 25 mM AcOH-Pyr (pH 5.0), 0.0025% (w/v) Triton X-100 under constant condition (temperature: 20–25 °C and humidity: 35–45 RH). A 25 µg/mL Cyanin3-keto-BSA (Cy3-keto-BSA) was also printed in the slide as grid. Subsequently, the slide was incubated at 80 °C for 1 h to complete the oxime bond formation. Washed once with Milli-Q H2O and dried by centrifugation at 2,000 rpm for 2 min.
# A silicon rubber sheet with six chambers was attached to the printed slide. Next, slide was pretreated with reaction buffer {Phosphate-Buffered Saline solution (PBS, 1X) [10 mM Na2HPO4, 1.8 mM KH2PO4, 2.7 mM KCl, 137 mM NaCl] pH7.4 containing 0.05% (v/v) Tween-20} for 15 min and dried by centrifugation. The PBS (with or without 10 mM DTT) solutions of galectin were prepared and maintained at a cold ice bath before use. Thereafter, a cover glass was set on each chamber and 12 µL of 0.10 µg/mL lectin solution in reaction buffer was added through the gap of the slide and cover. After 1 h of incubation with the lectin solution at rt in a humidified chamber, the slide was rinsed with washing buffer (reaction buffer with containing 0.05% (v/v) Tween-20) and fluorescence intensity was measured with GlycoStation System. To determine whether additional interactions will be detected at higher lectin concentrations, the reaction buffer solution was carefully removed and replaced with the next lectin test concentration, incubated for 5 min at rt, washed with reaction buffer and then fluorescence intensity was obtained. This step was repeated until all the chosen test concentrations were completed (0.32-, 1.00-, 3.20-, 10.0-, and 32.0 µg/mL).
# Images of slides were captured in the presence of reaction buffer. The fluorescexcelence intensities obtained were analyzed using ArrayVision 8.0 (GE Healthcare). For each spot, background correction was applied to get the net intensity, and the average relative fluorescence unit (RFU) was plotted using Microsoft Excel for Microsoft 365. The lectin specificity was identified from high and low RFU values, the error bars being the standard deviation.
# Gal-4 = experiment: Glycopeptide microarray lectin binding assay, Gal-4; parameters: species or system human; details: compounds immobilised at 20 and/or 200 μM; Gal-4 0.10-32.0 µg/mL, PBS pH 7.4, no reducing agent
# Experimental: (§1) Following our reported optimized protocol, the binding profile of lectins were investigated using evanescent-field fluorescence-assisted microarray technology to directly monitor the interaction without the wash and dry-up process and rapid exchange of protein solution to evaluate concentration dependence, 0.10–32.0 µg/mL protein. The AO/PC-copolymer microarray slides were deprotected using 2N HCl treatment overnight at rt, rinsed with MilliQ H2O, and dried by centrifugation. […]
# (§2) A silicon rubber sheet with six chambers was attached to the printed slide. […] After 1 h of incubation with the lectin solution at rt in a humidified chamber, the slide was rinsed with washing buffer (reaction buffer with containing 0.05% (v/v) Tween-20) and fluorescence intensity was measured with GlycoStation System. To determine whether additional interactions will be detected at higher lectin concentrations, the reaction buffer solution was carefully removed and replaced with the next lectin test concentration, incubated for 5 min at rt, washed with reaction buffer and then fluorescence intensity was obtained. […]
# (§3) Images of slides were captured in the presence of reaction buffer. The fluorescexcelence intensities obtained were analyzed using ArrayVision 8.0 (GE Healthcare). […]
# [2] = test system: laminin-111, -121, -211, and -221 with unlabeled Gal-1; experiment: Laminin–Gal-1 binding assay (trans-bridging on microarray); parameters: species or system human; details: 200 μM immobilised compounds; 0.10-32.0 µg/mL Cy3-laminin–unlabeled Gal-1, 32.0 µg/mL extended 30 min
# Experimental: A 12 µL of premixed Cy3-labeled human recombinant laminin (BroadPharm and Biolamina, respectively) and unlabeled-Gal-1 with final concentration of 0.10 µg/mL was added to the printed test compounds. After 1 h of incubation with the laminin-galectin solution at rt in a humidified chamber, the slide was rinsed with washing buffer and fluorescence intensity was measured with GlycoStation System. To determine whether additional interactions will be detected at higher laminin-Gal-1 concentrations, the reaction buffer solution was carefully removed and replaced with the next test concentration, incubated for 5 min at rt, washed with reaction buffer and then fluorescence intensity was obtained. This step was repeated until all the chosen test concentrations were completed (0.32-, 1.00-, 3.20-, 10.0-, and 32.0 µg/mL). For weak interaction, incubation with 32.0 µg/mL of laminin-Gal-1 solution was extended for 30 min. Slide images were captured and analyzed as described above.
# Gal-3 [3] = experiment: Glycopeptide microarray lectin binding assay, Gal-3; parameters: species or system human; details: compounds immobilised at 20 and/or 200 μM; Gal-3 0.10-32.0 µg/mL, PBS pH 7.4, no reducing agent
# Experimental: as §1, §2, §3
# Gal-1, Gal-4, and Gal-9 = experiment: Microarray inhibition experiment (methyl-Lac, cellobiose, maltose, acetylated peptide 4); type: binding, human; details: for Effect of soluble inhibitor on galectin binding to immobilised glycopeptides: 10 µg/mL galectin, sugars 2.00 µM to 200 mM, acetylated peptide 4 100 µM to 5.00 mM; for Gal-1 interaction with immobilised compound upon addition of methyl-Lac: Gal-1, Fig. 5b, 2.00 µM to 200 mM methyl-Lac
# Experimental: After 30 min of incubation with the galectin-inhibitor solution at rt in a humidified chamber, the slide was rinsed with washing buffer and fluorescence intensity was measured with GlycoStation System. […] Slide images were captured and analyzed as described above.
# Gal-1 [4] = experiment: 1H-15N HSQC NMR chemical shift perturbation of 15N-labeled Gal-1; type: binding, human; details: tested concentrations, 0.05 up to 64 equivalents of ligand; 100 µM Gal-1, pH 6.9, 10 mM DTT
# Experimental: ^15N Gal-1 was expressed in Escherichia coli cells BL21(DE3) from pET-GST/TEV-LGVLFQGP-hLGALS1 vector (VectorBuilder, Japan). The component cells were transformed with an expression vector utilizing the heat shock method. After one night of incubation on LB Agar plate (containing 100 μg/mL ampicillin), a colony harboring the expression construct was selected and then inoculated unto 5 mL Luria Broth (LB) with antibiotic overnight at 37 °C with shaking. The bacterial pellet was then resuspended to a fresh 500 mL M9-labeled (^15N-NH4Cl as nitrogen source) medium containing ampicillin. After that, culture was grown at 37 °C for at least 4 h until OD600 = 0.6–1.2. The cells were then induced with 0.5 mM isopropyl-β-D-1-thiogalactopyranoside (IPTG) overnight at 25 °C. Bacteria expressing ^15N Gal-1 was lysed with a sonicator (for 5 min, 25% duty cycle. 5 output control) in buffer containing 50 mM PBS, pH 7.4, 150 mM NaCl, 2 mM DTT. […] Lectin-binding activity was analyzed by 15N-HQSC with methyl-Lac. […]
# The ^15N-labeled Gal-1 was prepared at 100 µM concentration in 20 mM potassium phosphate buffer at pH 6.9, 50 µM EDTA and 10 mM DTT, made up using H2O/D2O (95:5%). […] Raw data were converted using TopSpin 4.1.3 and were analyzed using NMRFAM-Sparky[71]. […] The perturbation pattern of the Gal-1 (PDB ID: 1GZW) was analyzed and visualized by PyMOL 2.5.0 (http://www.pymol.org).
# Gal-1, -3, -4, and -9 = experiment: Glycopeptide microarray, statements for the galectin test panel as a whole; type: binding, human; details: compounds immobilised at 20 and/or 200 μM; galectins 0.10-32.0 µg/mL, PBS pH 7.4, no reducing agent
# Experimental: as §1, §2, §3
# laminins = details: basal lamina; read-out: Kd of Gal-1 binding to poly-LacNAc structures of laminins; cited from earlier work
# Description: In the basal lamina, Gal-1 binds to the poly-LacNAc structures of laminins (Kd≈10^−6 M), to maintain glycan recognizing function of Gal-1 in the ECM[61]. During muscle repair, Gal-1 binds directly to laminin and α7β1 integrin modulating the late myoblast fusion. In addition, Gal-1 can dissociate from laminin and cross-link olfactory neurons, forming ne ...
# Gal-9 = experiment: Glycopeptide microarray lectin binding assay, Gal-9; parameters: species or system human; details: compounds immobilised at 20 and/or 200 μM; Gal-9 0.10-32.0 µg/mL, PBS pH 7.4, no reducing agent
# Experimental: as §1, §2, §3
# Gal-3 [5] = details: read-out: Kd of interaction with Gal-3; cited from earlier work
# Description: The glycan-CBP interactions are influenced by not only the type of glycan but also the spatial orientation, carrier scaffold, accessibility, density, and spacing of sugar moieties along the glycoconjugate, to obtain optimum fit within the binding pocket of the receptors[37],[40],[44].
molecule,measurement,setting,value
"5-oxo-hexanoyl-TRGAIIQTPTLGPIQPTRV -NH2 [compound 28, α-DG glycopeptide with heterogeneous glycans: sialyl-LacNAc core M1 and LacNAc core M1]","Gal-1 binding, microarray signal intensity (RFU)",Gal-1 [1],bound; also recorded: diminished Gal-1 binding
same,"Gal-4 binding, microarray signal intensity (RFU)",Gal-4,significant reduction in the affinity
same,"Gal-1 trans-bridging of Cy3-laminin to immobilised compound, signal intensity",[2],decrease in the trans-bridging activity
"5-oxo-hexanoyl-TRGAIIQTPTLGPIQPTRV -NH2 [compound 15, bis-LacNAc core M1 α-DG glycopeptide, consecutive glycosylation sites]","Gal-3 binding, microarray signal intensity (RFU)",Gal-3 [3],stronger affinity
32: acetylated N-terminus unglycosylated α-DG peptide corresponding to 4 (Ac-TRGAIIQTPTLGPIQPTRV) [compound 32],Effect of soluble inhibitor on galectin binding to immobilised glycopeptides,"Gal-1, Gal-4, and Gal-9",minimal effect on the binding
same,Chemical shift perturbation of 15N Gal-1 over the titration,Gal-1 [4],failed to induce any significant deviation in the chemical shift
"5-oxo-hexanoyl-TRGAIIQTPTLGPIQPTRV -NH2 [compound 18, tris-LacNAc terminated α-DG glycopeptide]","Gal-3 binding, microarray signal intensity (RFU)",Gal-3 [3],did not result in higher intensity
same,"Binding of the tested galectins (panel statement), microarray signal intensity","Gal-1, -3, -4, and -9",lesser interaction
Gal-1: prototype homodimeric human galectin,Kd,laminins,~1 µM
"5-oxo-hexanoyl-TRGAIIQTPTLGPIQPTRV -NH2 [compound 26, α-DG glycopeptide with heterogeneous glycans: LacNAc core M1 and core M1]","Gal-1 binding, microarray signal intensity (RFU)",Gal-1 [1],bound
same,"Binding of the tested galectins (panel statement), microarray signal intensity","Gal-1, -3, -4, and -9",high interaction
same,Galectin interaction with immobilised compound in the presence of methyl-Lac,"Gal-1, Gal-4, and Gal-9; 200 μM immobilised compounds, 10 µg/mL galectin with 2.00 µM to 200 mM methyl-Lac",significantly reduced interaction
"5-oxo-hexanoyl-TRGAIIQTPTLGPIQPTRV -NH2 [compound 4, unglycosylated α-DG peptide backbone (…) with ketone linker]","Gal-1 binding, microarray signal intensity (RFU)",Gal-1 [1],binding was observed; also recorded: interact
same,"Gal-4 binding, microarray signal intensity (RFU)",Gal-4,interact
same,"Gal-9 binding, microarray signal intensity (RFU)",Gal-9,interact
same,"Gal-1 trans-bridging of Cy3-laminin to immobilised compound, signal intensity",[2],could anchor laminins
"5-oxo-hexanoyl-TRGAIIQTPTLGPIQPTRV -NH2 [compound 6, mono-core M1 α-DG glycopeptide]","Gal-1 binding, microarray signal intensity (RFU)",Gal-1 [1],did not show significant interaction
same,Gal-1 interaction with immobilised compound upon addition of methyl-Lac,"Gal-1, Gal-4, and Gal-9",enhanced interaction
same,"Gal-1 trans-bridging of Cy3-laminin to immobilised compound, signal intensity",[2],remarkable signal intensities
"O=C[C@H](O)[C@@H](O)[C@H](O[C@@H]1O[C@H](CO)[C@@H](O)[C@H](O)[C@H]1O)[C@H](O)CO [cellobiose, reference compound]",Effect of soluble inhibitor on galectin binding to immobilised glycopeptides,"Gal-1, Gal-4, and Gal-9",minimal effect on the binding
"CO[C@@H]1O[C@H](CO)[C@@H](O[C@@H]2O[C@H](CO)[C@H](O)[C@H](O)[C@H]2O)[C@H](O)[C@H]1O [methyl-Lac, methyl-β-lactoside, reference compound]",Effect of soluble inhibitor on galectin binding to immobilised glycopeptides,"Gal-1, Gal-4, and Gal-9",significantly reduced interaction
same,Chemical shift perturbation of 15N Gal-1 over the titration,Gal-1 [4],shifted the ^1H-^15N HSQC signals corresponding to the residues on S3–L6 regions
"Galβ1,3GalNAcα1-O-Ser/Thr [TF antigen]",Kd,Gal-3 [5],245 µM
"5-oxo-hexanoyl-TRGAIIQTPTLGPIQPTRV -NH2 [compound 5, mono-core M1 α-DG glycopeptide]","Gal-1 binding, microarray signal intensity (RFU)",Gal-1 [1],did not show significant interaction
same,Gal-1 interaction with immobilised compound upon addition of methyl-Lac,"Gal-1, Gal-4, and Gal-9",enhanced interaction
same,"Gal-1 trans-bridging of Cy3-laminin to immobilised compound, signal intensity",[2],remarkable signal intensities
"5-oxo-hexanoyl-TRGAIIQTPTLGPIQPTRV -NH2 [compound 11, tris-core M1 α-DG glycopeptide]","Gal-1 binding, microarray signal intensity (RFU)",Gal-1 [1],notable decrease in binding interaction
